Measured values: patent US20260034135A1, “USE OF N6-BENZYLAMINOPURINE AS AN APPETITE SUPPRESSANT” (THE GOVERNING COUNCIL OF THE UNIVERSITY OF TORONTO, priority 2022, published 2026)

What was measured:
Assay type in all cases: cell-based, mouse
AMPK = AMPK phosphorylation by Western blot in mHypoE-46; settings: 500 μM AICAR, 15 min, mHypoE-46, positive control
Experimental: mHypoE-46 cells were serum starved in 5.5 mM glucose (LG) DMEM for 1 hour prior to treatment with vehicle (0.1% DMSO), 100 µM BAP or H20, […] 5-Aminoimidazole-4-carboxamide ribonucleotide (AICAR) or 0 mM glucose DMEM. Protein was harvested using 1× cell lysis buffer (Cell Signaling Technologies, Inc, CST) containing protease and phosphatase inhibitors. A total of 30 μg protein was separated on a 12% SDS-polyacrylamide gels and transferred onto PVDF membranes. Membranes were blocked in 5% milk dissolved in Tris-buffered saline with Tween 20 (TBS-T) for 1 h and incubated with primary antibody overnight at 4° C. phospho-AMPKα (Thr172; cat. 2532S, CST), and total AMPKα (cat. 2535S, CST); phospho-p70-S6K (Thr389; cat. 9205S, CST) and total p70-S6K (cat. 9202S, CST); insulin receptor ß (cat. 3025S, CST); phospho-AKT (Ser473; cat. 9271S, CST) and total AKT (cat. 9272S, CST); phospho-ERK1/2 (Thr202/Tyr204; cat. 9101, CST) and total ERK (cat. 4695, CST) were diluted 1:1000 in 5% milk in TBS-T. Membranes were washed and incubated with secondary HRP-linked antirabbit antibody (1:7500 in 5% milk in TBS-T, CST) for 1 h, washed, and imaged using the Signal Fire ECL Reagent (CST) on the iBright 1500 Imaging System (Thermofisher). Protein density was quantified using ImageJ or the iBright Imaging System.

mHypoE-46 cell line = experiment: Gene expression by qRT-PCR in mHypoE-46 hypothalamic cell line; settings: for Npy expression: 16 hr
Experimental: (§1) Hypothalamic neurons from embryonic and adult mice were previously immortalized to generate the clonal cell lines mHypoE-46, mHypoE-44, mHypoE-41, mHypoE-38, mHypoA-59, a FAC-sorted POMC/GFP mouse-derived cell line, mHypoA-POMC/GFP-2, and a mixed culture mHypoA-Bmal1-WT/F cell line (6, 13, 14). The mHypoE-46, mHypoE-44, and mHypoA-Bmal1-WT/F lines were cultured in DMEM containing 1000 mg/L glucose supplemented with 5% FBS and 1% pen/strep. The mHypoE-41, mHypoE-38, and mHypoA-59 cell lines were cultured in DMEM containing 4500 mg/L glucose supplemented with 2% FBS and 1% pen/strep. The mHypoA-POMC/GFP-2 line was cultured in DMEM containing 1000 mg/L glucose supplemented with 2% FBS and 1% pen/strep. All cells were maintained in 5% CO2 at 37° C. BAP was initially dissolved in DMSO solvent (vehicle control) to achieve 1000x the intended dose. The BAP solution was then diluted 1:1000 with the growth media used for the cell line. For co-treatment experiments, the vehicle control for ATP, UDP, and PKI was water, and for the H89 PKA inhibitor was DMSO. Neuropeptide gene expression levels were determined by qRT-PCR.
(§2) For cell culture experiments, total RNA was isolated using PureLink RNA isolation kit (Thermofisher Scientific, Burlington, ON, Canada) according to the manufacturer's instruction with on column DNase step (PureLink DNAse kit) or DNase I treatment to remove genomic DNA. For mouse experiments, total RNA was isolated using mirVana PARIS RNA and native protein isolation kit (Thermofisher Scientific). RNA quality and quantity were measured using Nanodrop 2000 and 500-1000 ng of complimentary DNA (cDNA) was synthesized with High Capacity cDNA Reverse Transcription kit (Applied biosystems, Thermofisher Scientific). Quantitative reverse transcription polymerase chain reaction (RT-qPCR) was performed with 12.5 ng of cDNA amplified with Platinum SYBR green qPCR SuperMix-UDG with ROX on an Applied Biosystems Prism 7900HT or PowerTrack Green Master Mix on an Applied Biosystems QuantStudio 5 and gene specific primers as per manufacturer's instructions (Table 1). Data was analyzed using […] and normalized to reference gene, either 60S ribosomal protein L7 (Rpl7) or Histone 3a (His).

mHypoA-59 cell line = experiment: Gene expression by qRT-PCR in mHypoA-59 hypothalamic cell line; settings: ATP (data not shown)
Experimental: as §1, §2

mHypoE-44 cell line = experiment: Gene expression by qRT-PCR in mHypoE-44 hypothalamic cell line; settings: 16 hr
Experimental: as §1, §2

mHypoE-41 cell line = experiment: Gene expression by qRT-PCR in mHypoE-41 hypothalamic cell line; settings: 100 μM ATP, 16 hr
Experimental: as §1, §2

`NC(=O)c1ncn([C@@H]2O[C@H](COP(=O)(O)O)[C@@H](O)[C@H]2O)c1N` [AICAR, 5-Aminoimidazole-4-carboxamide ribonucleotide, reference compound] was tested, and the “AMPK phosphorylation (activation) vs vehicle” value (AMPK) was “significantly activate AMPK”.
With `Nc1ncnc2c1ncn2[C@@H]1O[C@H](COP(=O)(O)OP(=O)(O)OP(=O)(O)O)[C@@H](O)[C@H]1O` [ATP, reference compound] the Npy expression (mHypoE-46 cell line; 100 μM ATP) was “induces the expression of Npy”, the Agrp expression (mHypoA-59 cell line) was “increased” and the Npy expression (mHypoA-59 cell line) was “increased”. The Npy expression (mHypoE-44 cell line; 100 μM ATP) was “induces the expression of Npy” and the Npy expression (mHypoE-41 cell line) was “induces the expression of Npy”.
`O=c1ccn([C@@H]2O[C@H](COP(=O)(O)OP(=O)(O)O)[C@@H](O)[C@H]2O)c(=O)[nH]1` [UDP, reference compound] was tested, and the Npy expression (mHypoE-46 cell line; 100 μM UDP) was “no effect” and the Npy expression (mHypoE-44 cell line; 100 μM UDP) was “unable to affect the expression of Npy”.
`O=c1ccn([C@@H]2O[C@H](COP(=O)(O)OP(=O)(O)OP(=O)(O)O)[C@@H](O)[C@H]2O)c(=O)[nH]1` [UTP, reference compound] was tested, and the Npy expression (mHypoE-46 cell line; 100 μM UTP, n=2 preliminary) was “no effect” and the “basal Npy expression” value (mHypoE-44 cell line; 100 μM UTP, n=2 preliminary) was “may decrease the basal expression of Npy”.
In the case of `c1coc(CNc2ncnc3[nH]cnc23)c1` [kinetin], the “repression of Npy transcripts” value (mHypoE-46 cell line; 100 μM kinetin, 16 h, n=2 preliminary) is reported as ~50%.
